From patent US20020137929A1, “1 - (3-heterocyclylphenyl) isothiourea, -isourea, -guanidine and -amidine herbicidal agents” (Intellectual Property Department, BASF Aktiengesellschaft, priority 1998, published 2002)

How the values were obtained:
CASOB (Sicklepod) = assay: Postemergence herbicidal evaluation; format: in vivo, Cassia obtusifolia
Outline: (§1)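 Two-week-old seedlings sprayed with compound in 50/50 acetone/water plus 0.5% TWEEN 20, at about 0.0156 to 0.500 kg/ha, nozzle at 40 psi. Kept in greenhouse; rated visually 4-5 weeks after treatment on a 0-9 scale versus control, repeat tests averaged.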

AMBEL (Ragweed, Common) = assay: Postemergence herbicidal evaluation; format: in vivo, Ambrosia artemisifolia
Outline: as §1

CYPSE (Flatsedge) [1] = assay: Postemergence weed control under flooded paddy conditions; format: in vivo, Cyperus serotinus; conditions: postemergence weeds, 3-4 weeks after treatment
Outline: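 With weeds 3 to 5 cm tall and rice at the 1.5 to 2.5 leaf stage, containers were flooded and water held 1.5 to 3 cm above soil. Compounds in 50/50 v/v aqueous/acetone went into the flood water at about 0.0313 to 0.500 kg/ha a.i. Effects were visually rated 0–9 against controls after three to four weeks in the greenhouse.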

[2] = tested on: GLXMAW (Soybean, Williams); assay: Postemergence herbicidal evaluation; format: in vivo, Glycine max, (L.) Merr. cv Williams
Outline: as §1

ORYSAT (Rice, Tebonnet) = assay: Postemergence herbicidal evaluation; format: in vivo, Oryza sativa, (L.) Tebonnet
Outline: as §1

CYPIR (Rice Flatsedge) = assay: Preemergence weed control under flooded paddy conditions; format: in vivo, Cyperus iria; conditions: rated 3-4 weeks after treatment
Outline: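 Flooded-pot preemergence screen with silt loam and seeds in the upper 0.5 cm. Dose about 0.0313 to 0.500 kg/ha, delivered into flood water; visual 0-9 score after 3 to 4 weeks.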

GALAP (Galium) = assay: Postemergence herbicidal evaluation; format: in vivo, Galium aparine
Outline: as §1

SETVI (Foxtail, Green) = assay: Postemergence herbicidal evaluation; format: in vivo, Setaria viridis
Outline: as §1

[3] = tested on: CHEAL (Lambsquarters, Common); assay: Postemergence herbicidal evaluation; format: in vivo, Chenopodium album
Outline: as §1

ECHCG (Barnyardgrass) = assay: Postemergence herbicidal evaluation; format: in vivo, Echinochloa crus-galli
Outline: as §1

[4] = tested on: SAGPY (Arrowhead (Pygmaea)); assay: Preemergence weed control under flooded paddy conditions; format: in vivo, Sagittaria pygmaea; conditions: rated 3-4 weeks after treatment
Outline: (§2)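 Greenhouse paddy assay. Acetone/water (50/50 v/v) solutions dosed into flood water, equivalent to about 0.0313 to 0.500 kg/ha active ingredient, over seeds planted 0.5 cm deep in silt loam. Score: 0-9 visual, based on stand, vigor, malformation, size and chlorosis, 3 to 4 weeks after treatment.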

CYPSE (Flatsedge) [5] = assay: as above; format: in vivo, Cyperus serotinus; conditions: rated 3-4 weeks after treatment
Outline: as §2

CCOC(=O)CN1C(=O)C(CC(=O)OC(C)C)SC1=Nc1cc(-n2c(=O)cc(C(F)(F)F)n(C)c2=O)c(F)cc1Cl (centres unmarked) [Compound 55, 2-{{2-Chloro-5-[3,6-dihydro-3-methyl-2,6-dioxo-4-(trifluoromethyl)-1(2H)-pyrimidinyl]-4-fluoro-phenyl}imino}-4-oxo-3,5-thiazolidinediacetic acid, 3-ethyl isopropyl ester] was tested, and the “Postemergence herbicidal rating CASOB” value (CASOB (Sicklepod); Rate 0.0158 kg/ha) was 1.0, the “Postemergence herbicidal rating CASOB” value (CASOB (Sicklepod); Rate 0.0313 kg/ha) was 7.7 and the “Postemergence herbicidal rating CASOB” value (CASOB (Sicklepod); Rate 0.0625 kg/ha) was 9.0. For the same compound, the “Postemergence herbicidal rating CASOB” value (CASOB (Sicklepod); Rate 0.1250 kg/ha) was 8.0, the “Postemergence herbicidal rating CASOB” value (CASOB (Sicklepod); Rate 0.2500 kg/ha) was 9.0 and the “Postemergence herbicidal rating AMBEL” value (AMBEL (Ragweed, Common); Rate 0.0158 kg/ha) was 9.0. For the same compound, the “Postemergence herbicidal rating AMBEL” value (AMBEL (Ragweed, Common); Rate 0.0313 kg/ha) was 9.0, the “Postemergence herbicidal rating AMBEL” value (AMBEL (Ragweed, Common); Rate 0.0625 kg/ha) was 9.0 and the “Postemergence herbicidal rating AMBEL” value (AMBEL (Ragweed, Common); Rate 0.1250 kg/ha) was 9.0. The “Postemergence herbicidal rating AMBEL” value (AMBEL (Ragweed, Common); Rate 0.2500 kg/ha) was 9.0, the “Herbicidal rating CYPSE” value (CYPSE (Flatsedge) [1]; rate 0.0313 kg/ha) was 0.0 and the “Herbicidal rating CYPSE” value (CYPSE (Flatsedge) [1]; rate 0.0625 kg/ha) was 0.0. The “Herbicidal rating CYPSE” value (CYPSE (Flatsedge) [1]; rate 0.1250 kg/ha) was 0.0, the “Herbicidal rating CYPSE” value (CYPSE (Flatsedge) [1]; rate 0.2500 kg/ha) was 0.0 and the “Postemergence herbicidal rating GLXMAW” value ([2]; Rate 0.0158 kg/ha) was 8.0. For the same compound, the “Postemergence herbicidal rating GLXMAW” value ([2]; Rate 0.0313 kg/ha) was 8.2, the “Postemergence herbicidal rating GLXMAW” value ([2]; Rate 0.0625 kg/ha) was 8.0 and the “Postemergence herbicidal rating GLXMAW” value ([2]; Rate 0.1250 kg/ha) was 8.3. For the same compound, the “Postemergence herbicidal rating GLXMAW” value ([2]; Rate 0.2500 kg/ha) was 8.0, the “Postemergence herbicidal rating ORYSAT” value (ORYSAT (Rice, Tebonnet); Rate 0.0158 kg/ha) was 2.5 and the “Postemergence herbicidal rating ORYSAT” value (ORYSAT (Rice, Tebonnet); Rate 0.0313 kg/ha) was 3.5. The “Postemergence herbicidal rating ORYSAT” value (ORYSAT (Rice, Tebonnet); Rate 0.0625 kg/ha) was 4.2, the “Postemergence herbicidal rating ORYSAT” value (ORYSAT (Rice, Tebonnet); Rate 0.1250 kg/ha) was 5.5 and the “Postemergence herbicidal rating ORYSAT” value (ORYSAT (Rice, Tebonnet); Rate 0.2500 kg/ha) was 6.5. For the same compound, the “Herbicidal rating CYPIR” value (CYPIR (Rice Flatsedge); 0.0313 kg/ha) was 9.0, the “Herbicidal rating CYPIR” value (CYPIR (Rice Flatsedge); 0.0625 kg/ha) was 9.0 and the “Herbicidal rating CYPIR” value (CYPIR (Rice Flatsedge); 0.1250 kg/ha) was 9.0. For the same compound, the “Herbicidal rating CYPIR” value (CYPIR (Rice Flatsedge); 0.2500 kg/ha) was 9.0, the “Postemergence herbicidal rating GALAP” value (GALAP (Galium); Rate 0.0158 kg/ha) was 6.0 and the “Postemergence herbicidal rating GALAP” value (GALAP (Galium); Rate 0.0313 kg/ha) was 3.3. The “Postemergence herbicidal rating GALAP” value (GALAP (Galium); Rate 0.0625 kg/ha) was 7.0, the “Postemergence herbicidal rating GALAP” value (GALAP (Galium); Rate 0.1250 kg/ha) was 9.0 and the “Postemergence herbicidal rating GALAP” value (GALAP (Galium); Rate 0.2500 kg/ha) was 9.0. For the same compound, the “Postemergence herbicidal rating SETVI” value (SETVI (Foxtail, Green); Rate 0.0158 kg/ha) was 9.0, the “Postemergence herbicidal rating SETVI” value (SETVI (Foxtail, Green); Rate 0.0313 kg/ha) was 9.0 and the “Postemergence herbicidal rating SETVI” value (SETVI (Foxtail, Green); Rate 0.0625 kg/ha) was 9.0. The “Postemergence herbicidal rating SETVI” value (SETVI (Foxtail, Green); Rate 0.1250 kg/ha) was 9.0, the “Postemergence herbicidal rating SETVI” value (SETVI (Foxtail, Green); Rate 0.2500 kg/ha) was 9.0 and the “Postemergence herbicidal rating CHEAL” value ([3]; Rate 0.0158 kg/ha) was 9.0. The “Postemergence herbicidal rating CHEAL” value ([3]; Rate 0.0313 kg/ha) was 9.0, the “Postemergence herbicidal rating CHEAL” value ([3]; Rate 0.0625 kg/ha) was 9.0 and the “Postemergence herbicidal rating CHEAL” value ([3]; Rate 0.1250 kg/ha) was 9.0. The “Postemergence herbicidal rating CHEAL” value ([3]; Rate 0.2500 kg/ha) was 9.0, the “Postemergence herbicidal rating ECHCG” value (ECHCG (Barnyardgrass); Rate 0.0158 kg/ha) was 9.0 and the “Postemergence herbicidal rating ECHCG” value (ECHCG (Barnyardgrass); Rate 0.0313 kg/ha) was 9.0. For the same compound, the “Postemergence herbicidal rating ECHCG” value (ECHCG (Barnyardgrass); Rate 0.0625 kg/ha) was 9.0, the “Postemergence herbicidal rating ECHCG” value (ECHCG (Barnyardgrass); Rate 0.1250 kg/ha) was 9.0 and the “Postemergence herbicidal rating ECHCG” value (ECHCG (Barnyardgrass); Rate 0.2500 kg/ha) was 9.0. For the same compound, the “Herbicidal rating SAGPY” value ([4]; 0.0313 kg/ha) was 0.0, the “Herbicidal rating SAGPY” value ([4]; 0.0625 kg/ha) was 0.0 and the “Herbicidal rating SAGPY” value ([4]; 0.1250 kg/ha) was 0.0. The “Herbicidal rating SAGPY” value ([4]; 0.2500 kg/ha) was 0.0, the “Herbicidal rating CYPSE” value (CYPSE (Flatsedge) [5]; 0.0313 kg/ha) was 0.0 and the “Herbicidal rating CYPSE” value (CYPSE (Flatsedge) [5]; 0.0625 kg/ha) was 0.0. The “Herbicidal rating CYPSE” value (CYPSE (Flatsedge) [5]; 0.1250 kg/ha) was 0.0 and the “Herbicidal rating CYPSE” value (CYPSE (Flatsedge) [5]; 0.2500 kg/ha) was 0.0.
